# Experiments:
# LU99 cells [1] = assay: CellTiter-Glo viability and CalcuSyn synergy, PRMT5 inhibitor + sotorasib, 6 days; settings: for Combination Fa: 8640 min
# MIAPACA2 cells = assay: CellTiter-Glo cell viability, PRMT5 inhibitor + sotorasib, 6 days; format: cell-based; settings: Compound B + sotorasib
# Description: Cell viability was measured by the CellTiter-Glo Luminescence assay after 6 days. […] To assess cell growth after combination treatment, nuclear counts were performed on the IncuCyte live cell imager over 8 days.
# SUM149PT cells = assay: CellTiter-Glo viability and CalcuSyn synergy, PRMT5 inhibitor + olaparib, 6 days; format: cell-based; settings: for Combination Fa: 8640 min
# Description: (§1) Raw luminescent values were converted to fraction affected (Fa) with the following equation: […]
# (§2) Synergy analysis was performed using the CalcuSyn software to determine CI scores based on the drug concentrations used and corresponding Fa values. Results are shown in Tables 1-3 below. *CI Values (Calcusyn): Strong Synergism: 0.1-0.3; Synergism: 0.3-0.7; Moderate Synergism: 0.7-0.85; Slight Synergism: 0.85-0.9; Nearly Additive: 0.9-1.1.
# A549 cells [2] = assay: CellTiter-Glo viability and CalcuSyn synergy, PRMT5 inhibitor + palbociclib, 6 days; settings: for Combination Fa: 8640 min
# HCC1395 cells = assay: CellTiter-Glo viability and CalcuSyn synergy, PRMT5 inhibitor + olaparib, 6 days; settings: for Combination Fa: 8640 min
# LU99 cells [3] = assay: CellTiter-Glo viability and CalcuSyn synergy, PRMT5 inhibitor + KIF18A, 6 days; format: cell-based; settings: for Combination Fa: 8640 min
# Description: as §1
# as §2, with “13-15” for “1-3”
# LU5268 NSCLC xenografts = assay: Tumor growth inhibition, LU5268 NSCLC xenografts (Example 13); format: in vivo, Female NOD/SCID mice; settings: Compound B 100 mg/kg orally once daily + sotorasib 100 mg/kg; versus either single agent alone
# Source text: 10 Female NOD/SCID mice were implanted with LU5268 NSCLC tumor xenografts. Mean tumor volumes for each grouping were between 100-200 mm^3. […] Plotted data represents the TGI (tumor growth inhibition), n=10 for each group.
# A549 cells [4] = assay: CellTiter-Glo viability and CalcuSyn synergy, PRMT5 inhibitor + trametinib, 6 days; settings: for Combination Fa: 8640 min
# MIAPACA2T2 cells = assay: as above; settings: for Combination Fa: 8640 min
# [5] = Compound B 0.0384 μM + sotorasib 0.15625 μM
# [6] = Compound B 0.0384 μM + sotorasib 0.3125 μM
# [7] = Compound B 0.0384 μM + sotorasib 0.625 μM
# [8] = Compound B 0.0384 μM + sotorasib 1.25 μM
# [9] = Compound B 0.0384 μM + sotorasib 2.5 μM
# [10] = Compound B 0.0384 μM + sotorasib 5 μM
# [11] = Compound B 0.0384 μM + sotorasib 10 μM
# [12] = Compound B 0.277008 μM + olaparib 0.103573 μM
# [13] = Compound B 0.277008 μM + olaparib 0.176074 μM
# [14] = Compound B 0.277008 μM + olaparib 0.299326 μM
# [15] = Compound B 0.277008 μM + olaparib 0.508854 μM
# [16] = Compound B 0.277008 μM + olaparib 0.865052 μM
# [17] = Compound B 0.277008 μM + olaparib 1.47059 μM
# [18] = Compound B 0.277008 μM + olaparib 2.5 μM
# [19] = Compound B 0.1535 μM + palbociclib 0.298023 μM
# [20] = Compound B 0.1535 μM + palbociclib 0.476837 μM
# [21] = Compound B 0.1535 μM + palbociclib 0.762939 μM
# [22] = Compound B 0.1535 μM + palbociclib 1.2207 μM
# [23] = Compound B 0.1535 μM + palbociclib 1.95313 μM
# [24] = Compound B 0.1535 μM + palbociclib 3.125 μM
# [25] = Compound B 0.1535 μM + palbociclib 5 μM
# [26] = Compound B 1.4579 μM + olaparib 0.103573 μM
# [27] = Compound B 1.4579 μM + olaparib 0.176074 μM
# [28] = Compound B 1.4579 μM + olaparib 0.299326 μM
# [29] = Compound B 1.4579 μM + olaparib 0.508854 μM
# [30] = Compound B 1.4579 μM + olaparib 0.865052 μM
# [31] = Compound B 1.4579 μM + olaparib 1.47059 μM
# [32] = Compound B 1.4579 μM + olaparib 2.5 μM
# [33] = Compound B 0.0729 μM + KIF18A 0.003984 μM
# [34] = Compound B 0.0729 μM + KIF18A 0.005578 μM
# [35] = Compound B 0.0729 μM + KIF18A 0.007809 μM
# [36] = Compound B 0.0729 μM + KIF18A 0.010933 μM
# [37] = Compound B 0.0729 μM + KIF18A 0.015306 μM
# [38] = Compound B 0.0729 μM + KIF18A 0.021429 μM
# [39] = Compound B 0.0729 μM + KIF18A 0.03 μM
# [40] = Compound B 0.0425 μM + trametinib 0.000213 μM
# [41] = Compound B 0.0425 μM + trametinib 0.000404 μM
# [42] = Compound B 0.0425 μM + trametinib 0.000767 μM
# [43] = Compound B 0.0425 μM + trametinib 0.001458 μM
# [44] = Compound B 0.0425 μM + trametinib 0.00277 μM
# [45] = Compound B 0.0425 μM + trametinib 0.005263 μM
# [46] = Compound B 0.0425 μM + trametinib 0.01 μM
# [47] = Compound B 0.437381 μM + trametinib 0.00101 μM
# [48] = Compound B 0.437381 μM + trametinib 0.001918 μM
# [49] = Compound B 0.437381 μM + trametinib 0.003645 μM
# [50] = Compound B 0.437381 μM + trametinib 0.00531 μM
# [51] = Compound B 0.437381 μM + trametinib 0.006925 μM
# [52] = Compound B 0.437381 μM + trametinib 0.013158 μM
# [53] = Compound B 0.437381 μM + trametinib 0.025 μM
smiles,measurement,setting,value
Cc1cc2cc(C(=O)N(Cc3ccc(C(F)(F)F)cn3)[C@@H](C)c3ncccn3)ccc2nc1N [Compound B],Computed CI value,LU99 cells [1]; [5],0.307
same,Combination Fa,LU99 cells [1]; [5],0.5467
same,Computed CI value,LU99 cells [1]; [6],0.234
same,Combination Fa,LU99 cells [1]; [6],0.5942
same,Computed CI value,LU99 cells [1]; [7],0.269
same,Combination Fa,LU99 cells [1]; [7],0.5919
same,Computed CI value,LU99 cells [1]; [8],0.273
same,Combination Fa,LU99 cells [1]; [8],0.615
same,Computed CI value,LU99 cells [1]; [9],0.32
same,Combination Fa,LU99 cells [1]; [9],0.6304
same,Computed CI value,LU99 cells [1]; [10],0.321
same,Combination Fa,LU99 cells [1]; [10],0.6694
same,Computed CI value,LU99 cells [1]; [11],0.669
same,Combination Fa,LU99 cells [1]; [11],0.6476
same,cell viability,MIAPACA2 cells,reduced MIAPACA2 cell viability
same,Computed CI value,SUM149PT cells; [12],0.618
same,Combination Fa,SUM149PT cells; [12],0.747
same,Computed CI value,SUM149PT cells; [13],0.579
same,Combination Fa,SUM149PT cells; [13],0.769
same,Computed CI value,SUM149PT cells; [14],0.777
same,Combination Fa,SUM149PT cells; [14],0.745
same,Computed CI value,SUM149PT cells; [15],0.582
same,Combination Fa,SUM149PT cells; [15],0.813
same,Computed CI value,SUM149PT cells; [16],0.565
same,Combination Fa,SUM149PT cells; [16],0.849
same,Computed CI value,SUM149PT cells; [17],0.543
same,Combination Fa,SUM149PT cells; [17],0.888
same,Computed CI value,SUM149PT cells; [18],0.504
same,Combination Fa,SUM149PT cells; [18],0.925
same,Computed CI value,A549 cells [2]; [19],0.293
same,Combination Fa,A549 cells [2]; [19],0.6994
same,Computed CI value,A549 cells [2]; [20],0.341
same,Combination Fa,A549 cells [2]; [20],0.7105
same,Computed CI value,A549 cells [2]; [21],0.497
same,Combination Fa,A549 cells [2]; [21],0.7007
same,Computed CI value,A549 cells [2]; [22],0.421
same,Combination Fa,A549 cells [2]; [22],0.7619
same,Computed CI value,A549 cells [2]; [23],0.626
same,Combination Fa,A549 cells [2]; [23],0.761
same,Computed CI value,A549 cells [2]; [24],0.685
same,Combination Fa,A549 cells [2]; [24],0.7958
same,Computed CI value,A549 cells [2]; [25],0.377
same,Combination Fa,A549 cells [2]; [25],0.8818
same,Computed CI value,HCC1395 cells; [26],0.217
same,Combination Fa,HCC1395 cells; [26],0.5945
same,Computed CI value,HCC1395 cells; [27],0.278
same,Combination Fa,HCC1395 cells; [27],0.6178
same,Computed CI value,HCC1395 cells; [28],0.338
same,Combination Fa,HCC1395 cells; [28],0.6595
same,Computed CI value,HCC1395 cells; [29],0.509
same,Combination Fa,HCC1395 cells; [29],0.6756
same,Computed CI value,HCC1395 cells; [30],0.679
same,Combination Fa,HCC1395 cells; [30],0.711
same,Computed CI value,HCC1395 cells; [31],0.706
same,Combination Fa,HCC1395 cells; [31],0.7778
same,Computed CI value,HCC1395 cells; [32],0.59
same,Combination Fa,HCC1395 cells; [32],0.8539
same,Computed CI value,LU99 cells [3]; [33],0.937
same,Combination Fa,LU99 cells [3]; [33],0.596
same,Computed CI value,LU99 cells [3]; [34],0.625
same,Combination Fa,LU99 cells [3]; [34],0.7067
same,Computed CI value,LU99 cells [3]; [35],0.753
same,Combination Fa,LU99 cells [3]; [35],0.712
same,Computed CI value,LU99 cells [3]; [36],0.651
same,Combination Fa,LU99 cells [3]; [36],0.7754
same,Computed CI value,LU99 cells [3]; [37],0.797
same,Combination Fa,LU99 cells [3]; [37],0.785
same,Computed CI value,LU99 cells [3]; [38],0.996
same,Combination Fa,LU99 cells [3]; [38],0.7939
same,Computed CI value,LU99 cells [3]; [39],1.312
same,Combination Fa,LU99 cells [3]; [39],0.797
same,anti-tumor activity,LU5268 NSCLC xenografts,significant anti-tumor activity versus either single agent alone
same,Computed CI value,A549 cells [4]; [40],0.569
same,Combination Fa,A549 cells [4]; [40],0.4457
same,Computed CI value,A549 cells [4]; [41],0.514
same,Combination Fa,A549 cells [4]; [41],0.5278
same,Computed CI value,A549 cells [4]; [42],0.5
same,Combination Fa,A549 cells [4]; [42],0.6046
same,Computed CI value,A549 cells [4]; [43],0.506
same,Combination Fa,A549 cells [4]; [43],0.6769
same,Computed CI value,A549 cells [4]; [44],0.452
same,Combination Fa,A549 cells [4]; [44],0.7607
same,Computed CI value,A549 cells [4]; [45],0.357
same,Combination Fa,A549 cells [4]; [45],0.8409
same,Computed CI value,A549 cells [4]; [46],0.589
same,Combination Fa,A549 cells [4]; [46],0.8482
same,Computed CI value,MIAPACA2T2 cells; [47],0.675
same,Combination Fa,MIAPACA2T2 cells; [47],0.6193
same,Computed CI value,MIAPACA2T2 cells; [48],0.555
same,Combination Fa,MIAPACA2T2 cells; [48],0.6852
same,Computed CI value,MIAPACA2T2 cells; [49],0.674
same,Combination Fa,MIAPACA2T2 cells; [49],0.7091
same,Computed CI value,MIAPACA2T2 cells; [50],0.775
same,Combination Fa,MIAPACA2T2 cells; [50],0.5757
same,Computed CI value,MIAPACA2T2 cells; [51],0.557
same,Combination Fa,MIAPACA2T2 cells; [51],0.797
same,Computed CI value,MIAPACA2T2 cells; [52],0.651
same,Combination Fa,MIAPACA2T2 cells; [52],0.8405
same,Computed CI value,MIAPACA2T2 cells; [53],1.099
same,Combination Fa,MIAPACA2T2 cells; [53],0.8474

# Reference: US20260373156A1, “CANCER TREATMENTS USING MTA-COOPERATIVE PRMT5 INHIBITORS” (AMGEN INC., priority 2022, published 2026)
